Data reported in the NIST ThermoML archive (doi:10.1016/j.fluid.2015.03.048).
± gives the expanded uncertainty stated by the source.

Assay: xn = mol fraction of the nth substance listed
Conditions: 303.15 K, 100 kPa, Liquid; for viscosity: Capillary tube (Ostwald / Ubbelohde) method; for excess molar volume: Direct dilatometry; for speed of sound: Frequency=3 MHz, Sing-around technique in a fixed-path interferometer; for mass density: Pycnometric method

Cc1ccccc1Cl [2-chlorotoluene] + CC(=O)N(C)C
Conditions	excess molar volume [m3/mol]	mass density [kg/m3]	speed of sound [m/s]	viscosity [mPa·s]
x2 = 0.1	–	1059.98 ± 11	1305 ± 3	–
x2 = 0.106	-2e-08 ± 6e-09	–	–	0.884 ± 0.013
x2 = 0.1231	-2.2e-08 ± 6e-09	–	–	0.883 ± 0.013
x2 = 0.1527	–	1053.19 ± 11	1316 ± 3	–
x2 = 0.1854	-3e-08 ± 6e-09	–	–	0.882 ± 0.013
x2 = 0.1862	–	1048.87 ± 11	1322 ± 3	–
x2 = 0.2241	-3.5e-08 ± 6e-09	1043.95 ± 10	1330 ± 3	0.881 ± 0.013
x2 = 0.2585	–	1039.48 ± 10	1337 ± 3	–
x2 = 0.2672	-3.9e-08 ± 6e-09	–	–	0.88 ± 0.013
x2 = 0.3057	-4.3e-08 ± 6e-09	–	–	0.879 ± 0.013
x2 = 0.3232	–	1031.07 ± 10	1350 ± 3	–
x2 = 0.3545	–	1026.99 ± 10	1356 ± 3	–
x2 = 0.3762	-4.9e-08 ± 6e-09	–	–	0.878 ± 0.013
x2 = 0.4095	-5.1e-08 ± 6e-09	–	–	0.877 ± 0.013
x2 = 0.4673	–	1012.24 ± 10	1378 ± 3	–
x2 = 0.503	–	1007.54 ± 10	1384 ± 3	–
x2 = 0.5255	-5.5e-08 ± 6e-09	–	–	0.876 ± 0.013
x2 = 0.5483	–	1001.55 ± 10	1391 ± 3	–
x2 = 0.561	-5.5e-08 ± 6e-09	–	–	0.875 ± 0.013
x2 = 0.6052	-5.2e-08 ± 6e-09	–	–	0.874 ± 0.013
x2 = 0.6722	–	985.14 ± 9.9	1407 ± 3	–
x2 = 0.7214	-4.2e-08 ± 6e-09	–	–	0.873 ± 0.013
x2 = 0.7275	–	977.79 ± 9.8	1415 ± 3	–
x2 = 0.7625	–	973.13 ± 9.8	1416 ± 3	–
x2 = 0.7712	-3.6e-08 ± 6e-09	–	–	0.872 ± 0.013
x2 = 0.8021	-3.2e-08 ± 6e-09	–	–	0.871 ± 0.013
x2 = 0.8525	–	961.13 ± 9.6	1428 ± 3	–
x2 = 0.8795	-2.3e-08 ± 6e-09	–	–	0.869 ± 0.013

Cc1ccc(Cl)cc1 [4-chlorotoluene] + CC(=O)N(C)C
Conditions	excess molar volume [m3/mol]	mass density [kg/m3]	speed of sound [m/s]	viscosity [mPa·s]
x2 = 0.0699	–	1056.58 ± 11	1286 ± 3	–
x2 = 0.0876	-6e-09 ± 6e-09	–	–	0.897 ± 0.013
x2 = 0.0969	–	1053.3 ± 11	1294 ± 3	–
x2 = 0.1205	-1e-08 ± 6e-09	–	–	0.895 ± 0.013
x2 = 0.1267	–	1049.63 ± 11	1303 ± 3	–
x2 = 0.1564	-1.2e-08 ± 6e-09	–	–	0.893 ± 0.013
x2 = 0.1767	–	1043.58 ± 10	1317 ± 3	–
x2 = 0.2099	–	1039.44 ± 10	1326 ± 3	–
x2 = 0.2145	-1.6e-08 ± 6e-09	–	–	0.89 ± 0.013
x2 = 0.2522	–	1034.25 ± 10	1339 ± 3	–
x2 = 0.2534	-1.9e-08 ± 6e-09	–	–	0.888 ± 0.013
x2 = 0.3011	-2.2e-08 ± 6e-09	–	–	0.886 ± 0.013
x2 = 0.3187	–	1026.08 ± 10	1359 ± 3	–
x2 = 0.374	-2.6e-08 ± 6e-09	–	–	0.884 ± 0.013
x2 = 0.4342	–	1011.83 ± 10	1385 ± 3	–
x2 = 0.4664	–	1007.85 ± 10	1392 ± 3	–
x2 = 0.4933	–	1004.51 ± 10	1397 ± 3	–
x2 = 0.495	-2.9e-08 ± 6e-09	–	–	0.882 ± 0.013
x2 = 0.5275	-2.9e-08 ± 6e-09	–	–	0.88 ± 0.013
x2 = 0.5443	–	998.18 ± 10	1403 ± 3	–
x2 = 0.5543	-2.8e-08 ± 6e-09	–	–	0.879 ± 0.013
x2 = 0.6041	-2.7e-08 ± 6e-09	–	–	0.878 ± 0.013
x2 = 0.6513	–	984.88 ± 9.9	1415 ± 3	–
x2 = 0.7047	-2.2e-08 ± 6e-09	–	–	0.876 ± 0.013
x2 = 0.7148	–	976.97 ± 9.8	1420 ± 3	–
x2 = 0.762	-1.8e-08 ± 6e-09	–	–	0.874 ± 0.013
x2 = 0.7858	–	968.12 ± 9.7	1424 ± 3	–
x2 = 0.8241	-1.4e-08 ± 6e-09	–	–	0.872 ± 0.013
x2 = 0.8524	–	959.81 ± 9.6	1425 ± 3	–
x2 = 0.8806	-1e-08 ± 6e-09	–	–	0.87 ± 0.013

Cc1cccc(Cl)c1 [3-chlorotoluene] + CC(=O)N(C)C
Conditions	excess molar volume [m3/mol]	mass density [kg/m3]	speed of sound [m/s]	viscosity [mPa·s]
x2 = 0.0671	–	1063.49 ± 11	1298 ± 3	–
x2 = 0.0838	-1e-08 ± 6e-09	–	–	0.783 ± 0.012
x2 = 0.1003	–	1059.19 ± 11	1307 ± 3	–
x2 = 0.1242	-1.4e-08 ± 6e-09	–	–	0.786 ± 0.012
x2 = 0.1481	–	1053.01 ± 11	1317 ± 3	–
x2 = 0.1735	–	1049.73 ± 11	1322 ± 3	–
x2 = 0.1811	-2e-08 ± 6e-09	–	–	0.789 ± 0.012
x2 = 0.2107	-2.3e-08 ± 6e-09	–	–	0.805 ± 0.012
x2 = 0.2255	–	1042.98 ± 10	1333 ± 3	–
x2 = 0.2658	–	1037.75 ± 10	1343 ± 3	–
x2 = 0.2702	-2.7e-08 ± 6e-09	–	–	0.811 ± 0.012
x2 = 0.3152	-3e-08 ± 6e-09	–	–	0.817 ± 0.013
x2 = 0.3343	–	1028.85 ± 10	1356 ± 3	–
x2 = 0.3595	–	1025.57 ± 10	1362 ± 3	–
x2 = 0.3897	-3.5e-08 ± 6e-09	–	–	0.823 ± 0.013
x2 = 0.4165	-3.6e-08 ± 6e-09	–	–	0.828 ± 0.013
x2 = 0.4436	–	1014.58 ± 10	1378 ± 3	–
x2 = 0.4865	–	1008.96 ± 10	1385 ± 3	–
x2 = 0.5035	-3.7e-08 ± 6e-09	–	–	0.832 ± 0.013
x2 = 0.5465	-3.6e-08 ± 6e-09	–	–	0.837 ± 0.013
x2 = 0.5673	–	998.38 ± 10	1399 ± 3	–
x2 = 0.6251	-3.4e-08 ± 6e-09	–	–	0.841 ± 0.013
x2 = 0.6638	–	985.69 ± 9.9	1412 ± 3	–
x2 = 0.7042	–	980.38 ± 9.8	1416 ± 3	–
x2 = 0.7152	-2.8e-08 ± 6e-09	–	–	0.846 ± 0.013
x2 = 0.7517	-2.5e-08 ± 6e-09	–	–	0.85 ± 0.013
x2 = 0.7822	–	970.1 ± 9.7	1424 ± 3	–
x2 = 0.8204	-1.9e-08 ± 6e-09	–	–	0.855 ± 0.013
x2 = 0.9182	–	952.18 ± 9.6	1440 ± 3	–
x2 = 0.9345	-9e-09 ± 6e-09	–	–	0.86 ± 0.013
